Data published in publication PMC2263054, “Functional evolution of the vitamin D and pregnane X receptors” (BMC Evolutionary Biology, 2007).
Counter-ions that a name gives are not always drawn. Like-named read-outs stand apart in the source and are kept apart here.

Columns and labels:
Type in all cases: cell-based
[1] = target: T1, Sea lamprey VDR (Petromyzon marinus, UniProt Q7ZZY9)
T1 sequence (Q7ZZY9 92-406): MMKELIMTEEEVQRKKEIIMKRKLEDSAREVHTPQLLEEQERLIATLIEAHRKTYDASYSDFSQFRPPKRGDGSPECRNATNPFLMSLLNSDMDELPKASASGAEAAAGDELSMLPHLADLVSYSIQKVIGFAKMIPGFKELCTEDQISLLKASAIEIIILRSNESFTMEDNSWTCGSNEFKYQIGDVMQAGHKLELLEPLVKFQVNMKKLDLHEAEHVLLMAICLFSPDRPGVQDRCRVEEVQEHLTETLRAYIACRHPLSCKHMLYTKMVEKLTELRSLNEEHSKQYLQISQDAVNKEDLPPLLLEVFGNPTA

[2] = target: T2, Xenopus laevis VDR (Xenopus laevis, UniProt O13124); assay: luciferase reporter transactivation assay in HepG2-NTCP cells, GAL4/xlVDR LBD chimera with tk-UAS-Luc; conditions: screening for activators, at least three concentrations of each drug
T2 sequence (O13124 90-422): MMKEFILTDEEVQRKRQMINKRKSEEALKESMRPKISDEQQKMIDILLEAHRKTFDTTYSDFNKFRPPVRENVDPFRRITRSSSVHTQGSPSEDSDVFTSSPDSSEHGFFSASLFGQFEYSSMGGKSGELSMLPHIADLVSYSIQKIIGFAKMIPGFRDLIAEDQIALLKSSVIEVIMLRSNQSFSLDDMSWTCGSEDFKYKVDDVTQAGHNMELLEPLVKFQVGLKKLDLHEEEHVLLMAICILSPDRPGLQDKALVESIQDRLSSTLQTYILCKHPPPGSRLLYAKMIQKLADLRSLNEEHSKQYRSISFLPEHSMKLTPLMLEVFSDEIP

[3] = target: T3, Zebrafish VDR (Danio rerio, UniProt Q9PTN2); assay: luciferase reporter transactivation assay in HepG2-NTCP cells, GAL4/zfVDR LBD chimera with tk-UAS-Luc; conditions: screening for activators, at least three concentrations of each drug
T3 sequence (Q9PTN2 121-453): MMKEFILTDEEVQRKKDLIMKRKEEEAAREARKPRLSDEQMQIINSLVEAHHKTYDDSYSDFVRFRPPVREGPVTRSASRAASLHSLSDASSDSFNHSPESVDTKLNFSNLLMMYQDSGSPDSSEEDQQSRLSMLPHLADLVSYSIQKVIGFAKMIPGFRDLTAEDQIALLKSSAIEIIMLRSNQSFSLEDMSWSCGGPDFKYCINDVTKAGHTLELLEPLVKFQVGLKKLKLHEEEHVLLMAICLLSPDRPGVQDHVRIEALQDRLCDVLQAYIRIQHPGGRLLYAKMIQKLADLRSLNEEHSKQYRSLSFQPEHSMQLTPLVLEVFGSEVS

[4] = screening for activators, at least three concentrations of each drug

CC1=C(/C=C/C(C)=C/C=C/C(C)=C/C(=O)O)C(C)(C)CCC1 [All trans retinoic acid]
No effect: Effect on sea lamprey VDR [1, 4] | Effect on Xenopus laevis VDR [2] | Effect on zebrafish VDR [3]

C[C@H](CCC(=O)O)[C@H]1CC[C@H]2[C@@H]3[C@H](O)C[C@H]4C[C@H](O)CC[C@]4(C)[C@H]3C[C@H](O)[C@]12C [Allocholic acid]
No effect: Effect on sea lamprey VDR [1, 4] | Effect on Xenopus laevis VDR [2] | Effect on zebrafish VDR [3]

Cc1c(C)c2c(c(C)c1O)CC[C@@](C)(CCC[C@H](C)CCC[C@H](C)CCCC(C)C)O2 [Alpha-tocopherol]
No effect: Effect on sea lamprey VDR [1, 4] | Effect on Xenopus laevis VDR [2] | Effect on zebrafish VDR [3]

C[C@]12CC[C@@H](O)C[C@@H]1CC[C@@H]1[C@@H]2CC[C@]2(C)C(=O)CC[C@@H]12 [Androsterone]
No effect: Effect on sea lamprey VDR [1, 4] | Effect on Xenopus laevis VDR [2] | Effect on zebrafish VDR [3]

CC(C)(c1ccc(OCC2CO2)cc1)c1ccc(OCC2CO2)cc1 (stereo not drawn) [BADGE]
No effect: Effect on sea lamprey VDR [1, 4] | Effect on Xenopus laevis VDR [2] | Effect on zebrafish VDR [3]

CC1=C(/C=C/C(C)=C/C=C/C(C)=C/C=C/C=C(C)/C=C/C=C(C)/C=C/C2=C(C)CCCC2(C)C)C(C)(C)CCC1 [Beta-carotene]
No effect: Effect on sea lamprey VDR [1, 4] | Effect on Xenopus laevis VDR [2] | Effect on zebrafish VDR [3]

CC[C@H](CC[C@@H](C)[C@H]1CC[C@H]2[C@@H]3CC=C4C[C@@H](O)CC[C@]4(C)[C@H]3CC[C@]12C)C(C)C [Beta-sitosterol]
No effect: Effect on sea lamprey VDR [1, 4] | Effect on Xenopus laevis VDR [2] | Effect on zebrafish VDR [3]

Cc1cc(O)c(C)c2c1O[C@](C)(CCC[C@H](C)CCC[C@H](C)CCCC(C)C)CC2 [Beta-tocopherol]
No effect: Effect on sea lamprey VDR [1, 4] | Effect on Xenopus laevis VDR [2] | Effect on zebrafish VDR [3]

CC(C)(Oc1ccc(CCNC(=O)c2ccc(Cl)cc2)cc1)C(=O)O [Bezafibrate]
No effect: Effect on sea lamprey VDR [1, 4] | Effect on Xenopus laevis VDR [2] | Effect on zebrafish VDR [3]

Clc1ccc(-c2nc3sccn3c2/C=N/OCc2ccc(Cl)c(Cl)c2)cc1 [CITCO]
No effect: Effect on sea lamprey VDR [1, 4] | Effect on Xenopus laevis VDR [2] | Effect on zebrafish VDR [3]

CC(C)[C@H](C)CC[C@@H](C)[C@H]1CC[C@H]2[C@@H]3CC=C4C[C@@H](O)CC[C@]4(C)[C@H]3CC[C@]12C [Campesterol]
No effect: Effect on sea lamprey VDR [1, 4] | Effect on Xenopus laevis VDR [2] | Effect on zebrafish VDR [3]

C[C@H](CCC(=O)O)[C@H]1CC[C@H]2[C@@H]3[C@H](O)C[C@@H]4C[C@H](O)CC[C@]4(C)[C@H]3CC[C@]12C [Chenodeoxycholic acid]
No effect: Effect on sea lamprey VDR [1] | Effect on Xenopus laevis VDR [2] | Effect on zebrafish VDR [3]

CC(C)CCC[C@@H](C)[C@H]1CC[C@H]2[C@@H]3CC=C4C[C@@H](OS(=O)(=O)O)CC[C@]4(C)[C@H]3CC[C@]12C [Cholesteryl sulfate (5-cholesten-3b-ol), Cholesteryl sulfate]
No effect: Effect on sea lamprey VDR [1, 4] | Effect on Xenopus laevis VDR [2] | Effect on zebrafish VDR [3]

CC1(COc2ccc(CC3SC(=O)NC3=O)cc2)CCCCC1 (stereo not drawn) [Ciglitazone]
No effect: Effect on sea lamprey VDR [1, 4] | Effect on Xenopus laevis VDR [2] | Effect on zebrafish VDR [3]

CC(C)(Oc1ccc(Cl)cc1)C(=O)O [Clofibric acid]
No effect: Effect on sea lamprey VDR [1, 4] | Effect on Xenopus laevis VDR [2] | Effect on zebrafish VDR [3]

Clc1ccccc1C(c1ccccc1)(c1ccccc1)n1ccnc1 [Clotrimazole]
No effect: Effect on sea lamprey VDR [1, 4] | Effect on Xenopus laevis VDR [2] | Effect on zebrafish VDR [3]

C[C@]12CC[C@H]3[C@@H](CCC4=CC(=O)CC[C@@]43C)[C@@H]1CC[C@@H]2C(=O)CO [Cortexone (4-Pregnen-21-ol-3,20-dione), 4-Pregnen-21-ol-3,20-dione]
No effect: Effect on sea lamprey VDR [1, 4] | Effect on Xenopus laevis VDR [2] | Effect on zebrafish VDR [3]

C[C@]12CCC(=O)C=C1CC[C@@H]1[C@@H]2[C@@H](O)C[C@@]2(C)[C@H]1CC[C@]2(O)C(=O)CO [Cortisol]
No effect: Effect on sea lamprey VDR [1, 4] | Effect on Xenopus laevis VDR [2] | Effect on zebrafish VDR [3]

C[C@]12CCC(=O)C=C1CC[C@@H]1[C@@H]2C(=O)C[C@@]2(C)[C@H]1CC[C@]2(O)C(=O)CO [Cortisone]
No effect: Effect on sea lamprey VDR [1] | Effect on Xenopus laevis VDR [2] | Effect on zebrafish VDR [3]

C[C@]12CC[C@@H](O)C[C@H]1CC[C@@H]1[C@@H]2[C@@H](O)C[C@@]2(C)[C@H]1CC[C@]2(O)[C@@H](O)CO [Cortol]
No effect: Effect on sea lamprey VDR [1, 4] | Effect on Xenopus laevis VDR [2] | Effect on zebrafish VDR [3]

C[C@]12CC[C@@H](O)C[C@H]1CC[C@@H]1[C@@H]2C(=O)C[C@@]2(C)[C@H]1CC[C@]2(O)[C@@H](O)CO [Cortolone]
No effect: Effect on sea lamprey VDR [1, 4] | Effect on Xenopus laevis VDR [2] | Effect on zebrafish VDR [3]

CC(C)=CCC[C@@H](C)[C@H]1CC[C@@]2(C)[C@@H]3CC[C@H]4C(C)(C)[C@@H](O)CC[C@@]45C[C@@]35CC[C@]12C [Cycloartenol]
No effect: Effect on sea lamprey VDR [1, 4] | Effect on Xenopus laevis VDR [2] | Effect on zebrafish VDR [3]

C[C@]12CC[C@H](OS(=O)(=O)O)CC1=CC[C@@H]1[C@@H]2CC[C@]2(C)C(=O)CC[C@@H]12 [DHEA sulfate]
No effect: Effect on sea lamprey VDR [1, 4] | Effect on Xenopus laevis VDR [2] | Effect on zebrafish VDR [3]

C[C@]12CC[C@H](O)CC1=CC[C@@H]1[C@@H]2CC[C@]2(C)C(=O)CC[C@@H]12 [DHEA]
No effect: Effect on sea lamprey VDR [1, 4] | Effect on Xenopus laevis VDR [2] | Effect on zebrafish VDR [3]

C[C@H](CCC(=O)O)[C@H]1CC[C@H]2[C@@H]3CC[C@@H]4C[C@H](O)CC[C@]4(C)[C@H]3C[C@H](O)[C@]12C [Deoxycholic acid]
No effect: Effect on sea lamprey VDR [1, 4] | Effect on Xenopus laevis VDR [2] | Effect on zebrafish VDR [3]

C[C@]12CCC(=O)C[C@@H]1CC[C@@H]1[C@@H]2CC[C@]2(C)[C@@H](O)CC[C@@H]12 [Dihydrotestosterone]
No effect: Effect on sea lamprey VDR [1, 4] | Effect on Xenopus laevis VDR [2] | Effect on zebrafish VDR [3]

CC/C=C\C/C=C\C/C=C\C/C=C\C/C=C\C/C=C\CCC(=O)O [Docosa-4Z,7Z,10Z,13Z,16Z,19Z-hexanoic acid]
No effect: Effect on sea lamprey VDR [1, 4] | Effect on Xenopus laevis VDR [2] | Effect on zebrafish VDR [3]

C[C@H]([C@H](O)CCC(C)(C)O)[C@H]1CC[C@@]2(O)C3=CC(=O)[C@@H]4C[C@@H](O)[C@@H](O)C[C@]4(C)[C@H]3CC[C@]12C [Ecdysone]
No effect: Effect on sea lamprey VDR [1, 4] | Effect on Xenopus laevis VDR [2] | Effect on zebrafish VDR [3]

C[C@]12CC[C@@H]3c4ccc(O)cc4CC[C@H]3[C@@H]1[C@@H](O)[C@@H](O)[C@@H]2O [Estetrol]
No effect: Effect on sea lamprey VDR [1, 4] | Effect on Xenopus laevis VDR [2] | Effect on zebrafish VDR [3]

C[C@]12CC[C@@H]3c4ccc(O[C@@H]5O[C@H](C(=O)O)[C@@H](O)[C@H](O)[C@H]5O)cc4CC[C@H]3[C@@H]1CC[C@@H]2O [Estradiol 3-glucuronide]
No effect: Effect on sea lamprey VDR [1, 4] | Effect on Xenopus laevis VDR [2] | Effect on zebrafish VDR [3]

C[C@]12CC[C@@H]3c4ccc(OS(=O)(=O)O)cc4CC[C@H]3[C@@H]1CC[C@@H]2O [Estradiol 3-sulfate]
No effect: Effect on sea lamprey VDR [1, 4] | Effect on Xenopus laevis VDR [2] | Effect on zebrafish VDR [3]

C[C@]12CC[C@@H]3c4ccc(O)cc4CC[C@H]3[C@@H]1C[C@@H](O)[C@@H]2O [Estriol]
No effect: Effect on sea lamprey VDR [1, 4] | Effect on Xenopus laevis VDR [2] | Effect on zebrafish VDR [3]

C[C@]12CC[C@@H]3c4ccc(OS(=O)(=O)O)cc4CC[C@H]3[C@@H]1CCC2=O [Estrone 3-sulfate]
No effect: Effect on sea lamprey VDR [1, 4] | Effect on Xenopus laevis VDR [2] | Effect on zebrafish VDR [3]
